Values of other authors in paper PMC5019575 (European journal of inorganic chemistry, 2015).

Experiments:
[1] = molecular target: T1, di-Fe^III-DF3 (synthetic construct, UniProt Z9XD63LK24); experiment: initial rates of oxidation, Lineweaver-Burk; type: biochemical; details: O2 (air), diferric protein, 100 mM HEPES/100 mM NaCl pH 7.0
T1 sequence (Z9XD63LK24 2-49): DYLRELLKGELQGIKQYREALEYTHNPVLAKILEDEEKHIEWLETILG

[2] = tested on: G4-DFtet; details: O2 (air), diiron protein, 100 mM HEPES/100 mM NaCl pH 7.0

Compound | Km [1] [µM] | Km [2] [µM]
CC(C)(C)c1cc(O)c(O)c(C(C)(C)C)c1 [3,5-DTBC, 3,5-di-tert-butylcatechol] | 2090 ± 310 | –
Nc1ccc(O)cc1 [4-AP, 4-aminophenol] | – | 830 ± 60
Nc1ccc(N)cc1 [PPD, p-phenylenediamine] | 8870 ± 2580 | –
